Measured values as given in the supplement of paper PMC13207355.

Legend:
Conditions in all cases: exposure time: 72 h
E21 [1] = patient-derived glioblastoma stem cells of mesenchymal subtype; assay: surviving fraction (nuclei count normalised to DMSO); higher = more cells surviving (less toxic)
FT3469 [2] = normal neural stem cell line; assay: as above
E31 [3] = patient-derived glioblastoma stem cells of proneural subtype; assay: as above
E34 [4] = patient-derived glioblastoma stem cells of proneural subtype; assay: as above
E57 [5] = patient-derived glioblastoma stem cells of mesenchymal subtype; assay: as above
E28 [6] = patient-derived glioblastoma stem cells of classical subtype; assay: as above
E13 [7] = patient-derived glioblastoma stem cells of classical subtype; assay: as above
E21 [8] = assay: phenotypic distance (Euclidean, principal components) from DMSO controls (arbitrary units); higher = stronger morphological change
FT3469 [9] = assay: as above
E31 [10] = assay: as above
E34 [11] = assay: as above
E57 [12] = assay: as above
E28 [13] = assay: as above
E13 [14] = assay: as above
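Throughout, for phenotypic distance (Euclidean, principal components) from DMSO controls: cell Painting imaging in 384-well plates, CellProfiler features reduced to at least 20 principal components, Euclidean distance versus same-plate DMSO vehicle wells (0.1% v/v), median over six images per well.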
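Throughout, for surviving fraction (nuclei count normalised to DMSO): nuclei counted by high-content imaging of Hoechst-stained cells in laminin-coated 384-well plates, relative to 0.1% DMSO vehicle wells, with staurosporine as cell-death control.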

CCC(C)n1ncn(-c2ccc(N3CCN(c4ccc(OCC5COC(Cn6cncn6)(c6ccc(Cl)cc6Cl)O5)cc4)CC3)cc2)c1=O (stereo unspecified) [Itraconazole]
surviving fraction (E21 [1]; 4.1 nM): 1.03 | surviving fraction (E21 [1]; 12.3 nM): 1.02 | surviving fraction (E21 [1]; 37 nM): 1.01 | surviving fraction (E21 [1]; 111.1 nM): 0.979 | surviving fraction (E21 [1]; 333.3 nM): 1.05 | surviving fraction (E21 [1]; 1000 nM): 0.79 | surviving fraction (E21 [1]; 3000 nM): 0.532 | surviving fraction (FT3469 [2]; 4.1 nM): 0.763 | surviving fraction (FT3469 [2]; 12.3 nM): 1.05 | surviving fraction (FT3469 [2]; 37 nM): 1.03 | surviving fraction (FT3469 [2]; 111.1 nM): 1.06 | surviving fraction (FT3469 [2]; 333.3 nM): 0.993 | surviving fraction (FT3469 [2]; 1000 nM): 0.895 | surviving fraction (FT3469 [2]; 3000 nM): 0.53 | surviving fraction (E31 [3]; 4.1 nM): 1.13 | surviving fraction (E31 [3]; 12.3 nM): 1.12 | surviving fraction (E31 [3]; 37 nM): 1.1 | surviving fraction (E31 [3]; 111.1 nM): 1.03 | surviving fraction (E31 [3]; 333.3 nM): 1.08 | surviving fraction (E31 [3]; 1000 nM): 1.09 | surviving fraction (E31 [3]; 3000 nM): 0.996 | surviving fraction (E34 [4]; 4.1 nM): 0.814 | surviving fraction (E34 [4]; 12.3 nM): 0.933 | surviving fraction (E34 [4]; 37 nM): 0.922 | surviving fraction (E34 [4]; 111.1 nM): 1.02 | surviving fraction (E34 [4]; 333.3 nM): 1.04 | surviving fraction (E34 [4]; 1000 nM): 0.831 | surviving fraction (E34 [4]; 3000 nM): 0.701 | surviving fraction (E57 [5]; 4.1 nM): 1.05 | surviving fraction (E57 [5]; 12.3 nM): 1.03 | surviving fraction (E57 [5]; 37 nM): 1.02 | surviving fraction (E57 [5]; 111.1 nM): 1.08 | surviving fraction (E57 [5]; 333.3 nM): 1.07 | surviving fraction (E57 [5]; 1000 nM): 0.999 | surviving fraction (E57 [5]; 3000 nM): 0.558 | surviving fraction (E28 [6]; 4.1 nM): 1.1 | surviving fraction (E28 [6]; 12.3 nM): 1.07 | surviving fraction (E28 [6]; 37 nM): 1.18 | surviving fraction (E28 [6]; 111.1 nM): 0.888 | surviving fraction (E28 [6]; 333.3 nM): 1.07 | surviving fraction (E28 [6]; 1000 nM): 0.897 | surviving fraction (E28 [6]; 3000 nM): 0.735 | surviving fraction (E13 [7]; 4.1 nM): 0.869 | surviving fraction (E13 [7]; 12.3 nM): 1.07 | surviving fraction (E13 [7]; 37 nM): 0.889 | surviving fraction (E13 [7]; 111.1 nM): 1.02 | surviving fraction (E13 [7]; 333.3 nM): 0.966 | surviving fraction (E13 [7]; 1000 nM): 0.801 | surviving fraction (E13 [7]; 3000 nM): 0.653 | phenotypic distance (E21 [8]; 4.1 nM): 0.987 | phenotypic distance (E21 [8]; 12.3 nM): 0.508 | phenotypic distance (E21 [8]; 37 nM): 0.932 | phenotypic distance (E21 [8]; 111.1 nM): 0.917 | phenotypic distance (E21 [8]; 333.3 nM): 0.975 | phenotypic distance (E21 [8]; 1000 nM): 3.76 | phenotypic distance (E21 [8]; 3000 nM): 7.08 | phenotypic distance (FT3469 [9]; 4.1 nM): 0.966 | phenotypic distance (FT3469 [9]; 12.3 nM): 0.554 | phenotypic distance (FT3469 [9]; 37 nM): 1.33 | phenotypic distance (FT3469 [9]; 111.1 nM): 3.66 | phenotypic distance (FT3469 [9]; 333.3 nM): 0.753 | phenotypic distance (FT3469 [9]; 1000 nM): 1.14 | phenotypic distance (FT3469 [9]; 3000 nM): 3.43 | phenotypic distance (E31 [10]; 4.1 nM): 0.564 | phenotypic distance (E31 [10]; 12.3 nM): 0.769 | phenotypic distance (E31 [10]; 37 nM): 0.273 | phenotypic distance (E31 [10]; 111.1 nM): 0.748 | phenotypic distance (E31 [10]; 333.3 nM): 0.758 | phenotypic distance (E31 [10]; 1000 nM): 1.32 | phenotypic distance (E31 [10]; 3000 nM): 5 | phenotypic distance (E34 [11]; 4.1 nM): 0.775 | phenotypic distance (E34 [11]; 12.3 nM): 0.644 | phenotypic distance (E34 [11]; 37 nM): 0.488 | phenotypic distance (E34 [11]; 111.1 nM): 0.692 | phenotypic distance (E34 [11]; 333.3 nM): 0.901 | phenotypic distance (E34 [11]; 1000 nM): 1.17 | phenotypic distance (E34 [11]; 3000 nM): 4 | phenotypic distance (E57 [12]; 4.1 nM): 0.542 | phenotypic distance (E57 [12]; 12.3 nM): 0.297 | phenotypic distance (E57 [12]; 37 nM): 0.803 | phenotypic distance (E57 [12]; 111.1 nM): 0.874 | phenotypic distance (E57 [12]; 333.3 nM): 0.482 | phenotypic distance (E57 [12]; 1000 nM): 2.51 | phenotypic distance (E57 [12]; 3000 nM): 6.42 | phenotypic distance (E28 [13]; 4.1 nM): 0.725 | phenotypic distance (E28 [13]; 12.3 nM): 0.689 | phenotypic distance (E28 [13]; 37 nM): 0.685 | phenotypic distance (E28 [13]; 111.1 nM): 0.54 | phenotypic distance (E28 [13]; 333.3 nM): 0.778 | phenotypic distance (E28 [13]; 1000 nM): 1.01 | phenotypic distance (E28 [13]; 3000 nM): 1.89 | phenotypic distance (E13 [14]; 4.1 nM): 0.693 | phenotypic distance (E13 [14]; 12.3 nM): 0.503 | phenotypic distance (E13 [14]; 37 nM): 1.03 | phenotypic distance (E13 [14]; 111.1 nM): 0.709 | phenotypic distance (E13 [14]; 333.3 nM): 0.981 | phenotypic distance (E13 [14]; 1000 nM): 2.73 | phenotypic distance (E13 [14]; 3000 nM): 4.62

CN(c1nccc(=O)[nH]1)C1CCN(c2nc3ccccc3n2Cc2ccc(F)cc2)CC1 [Mizolastine]
surviving fraction (E21 [1]; 4.1 nM): 1 | surviving fraction (E21 [1]; 12.3 nM): 1 | surviving fraction (E21 [1]; 37 nM): 0.949 | surviving fraction (E21 [1]; 111.1 nM): 1.03 | surviving fraction (E21 [1]; 333.3 nM): 1.03 | surviving fraction (E21 [1]; 1000 nM): 1.01 | surviving fraction (E21 [1]; 3000 nM): 1.09 | surviving fraction (FT3469 [2]; 4.1 nM): 1.15 | surviving fraction (FT3469 [2]; 12.3 nM): 0.975 | surviving fraction (FT3469 [2]; 37 nM): 0.987 | surviving fraction (FT3469 [2]; 111.1 nM): 1.06 | surviving fraction (FT3469 [2]; 333.3 nM): 1.03 | surviving fraction (FT3469 [2]; 1000 nM): 0.94 | surviving fraction (FT3469 [2]; 3000 nM): 1.15 | surviving fraction (E31 [3]; 4.1 nM): 1.01 | surviving fraction (E31 [3]; 12.3 nM): 1.16 | surviving fraction (E31 [3]; 37 nM): 0.825 | surviving fraction (E31 [3]; 111.1 nM): 1.19 | surviving fraction (E31 [3]; 333.3 nM): 0.944 | surviving fraction (E31 [3]; 1000 nM): 1.18 | surviving fraction (E31 [3]; 3000 nM): 0.875 | surviving fraction (E34 [4]; 4.1 nM): 1.16 | surviving fraction (E34 [4]; 12.3 nM): 0.983 | surviving fraction (E34 [4]; 37 nM): 1.01 | surviving fraction (E34 [4]; 111.1 nM): 0.939 | surviving fraction (E34 [4]; 333.3 nM): 1.04 | surviving fraction (E34 [4]; 1000 nM): 1.1 | surviving fraction (E34 [4]; 3000 nM): 0.941 | surviving fraction (E57 [5]; 4.1 nM): 0.99 | surviving fraction (E57 [5]; 12.3 nM): 1.02 | surviving fraction (E57 [5]; 37 nM): 1.06 | surviving fraction (E57 [5]; 111.1 nM): 0.976 | surviving fraction (E57 [5]; 333.3 nM): 1.05 | surviving fraction (E57 [5]; 1000 nM): 1.05 | surviving fraction (E57 [5]; 3000 nM): 1.06 | surviving fraction (E28 [6]; 4.1 nM): 1.08 | surviving fraction (E28 [6]; 12.3 nM): 1.1 | surviving fraction (E28 [6]; 37 nM): 1.1 | surviving fraction (E28 [6]; 111.1 nM): 1.19 | surviving fraction (E28 [6]; 333.3 nM): 1.06 | surviving fraction (E28 [6]; 1000 nM): 1.13 | surviving fraction (E28 [6]; 3000 nM): 0.972 | surviving fraction (E13 [7]; 4.1 nM): 0.797 | surviving fraction (E13 [7]; 12.3 nM): 0.967 | surviving fraction (E13 [7]; 37 nM): 0.849 | surviving fraction (E13 [7]; 111.1 nM): 0.869 | surviving fraction (E13 [7]; 333.3 nM): 0.989 | surviving fraction (E13 [7]; 1000 nM): 0.896 | surviving fraction (E13 [7]; 3000 nM): 0.956 | phenotypic distance (E21 [8]; 4.1 nM): 0.704 | phenotypic distance (E21 [8]; 12.3 nM): 0.468 | phenotypic distance (E21 [8]; 37 nM): 0.444 | phenotypic distance (E21 [8]; 111.1 nM): 0.765 | phenotypic distance (E21 [8]; 333.3 nM): 0.434 | phenotypic distance (E21 [8]; 1000 nM): 0.621 | phenotypic distance (E21 [8]; 3000 nM): 0.543 | phenotypic distance (FT3469 [9]; 4.1 nM): 0.538 | phenotypic distance (FT3469 [9]; 12.3 nM): 1.14 | phenotypic distance (FT3469 [9]; 37 nM): 0.386 | phenotypic distance (FT3469 [9]; 111.1 nM): 0.797 | phenotypic distance (FT3469 [9]; 333.3 nM): 0.453 | phenotypic distance (FT3469 [9]; 1000 nM): 0.544 | phenotypic distance (FT3469 [9]; 3000 nM): 0.613 | phenotypic distance (E31 [10]; 4.1 nM): 0.567 | phenotypic distance (E31 [10]; 12.3 nM): 0.802 | phenotypic distance (E31 [10]; 37 nM): 1.44 | phenotypic distance (E31 [10]; 111.1 nM): 0.455 | phenotypic distance (E31 [10]; 333.3 nM): 0.814 | phenotypic distance (E31 [10]; 1000 nM): 0.555 | phenotypic distance (E31 [10]; 3000 nM): 0.652 | phenotypic distance (E34 [11]; 4.1 nM): 0.476 | phenotypic distance (E34 [11]; 12.3 nM): 1.2 | phenotypic distance (E34 [11]; 37 nM): 1.86 | phenotypic distance (E34 [11]; 111.1 nM): 0.66 | phenotypic distance (E34 [11]; 333.3 nM): 0.677 | phenotypic distance (E34 [11]; 1000 nM): 0.599 | phenotypic distance (E34 [11]; 3000 nM): 0.698 | phenotypic distance (E57 [12]; 4.1 nM): 0.544 | phenotypic distance (E57 [12]; 12.3 nM): 0.715 | phenotypic distance (E57 [12]; 37 nM): 3.66 | phenotypic distance (E57 [12]; 111.1 nM): 0.766 | phenotypic distance (E57 [12]; 333.3 nM): 0.54 | phenotypic distance (E57 [12]; 1000 nM): 0.624 | phenotypic distance (E57 [12]; 3000 nM): 0.531 | phenotypic distance (E28 [13]; 4.1 nM): 0.853 | phenotypic distance (E28 [13]; 12.3 nM): 5.48 | phenotypic distance (E28 [13]; 37 nM): 0.52 | phenotypic distance (E28 [13]; 111.1 nM): 0.84 | phenotypic distance (E28 [13]; 333.3 nM): 0.698 | phenotypic distance (E28 [13]; 1000 nM): 0.693 | phenotypic distance (E28 [13]; 3000 nM): 0.97 | phenotypic distance (E13 [14]; 4.1 nM): 0.868 | phenotypic distance (E13 [14]; 12.3 nM): 0.459 | phenotypic distance (E13 [14]; 37 nM): 0.939 | phenotypic distance (E13 [14]; 111.1 nM): 0.783 | phenotypic distance (E13 [14]; 333.3 nM): 0.597 | phenotypic distance (E13 [14]; 1000 nM): 0.555 | phenotypic distance (E13 [14]; 3000 nM): 0.59
